IC90 data for 25 molecules are collected here from patent US20230203043A1, “NOVEL IMIDAZOPYRAZINE DERIVATIVES” (Hoffmann-La Roche Inc., priority 2020, published 2023).

Where a name gives a salt, the structure may show the parent alone.

In the first assay the test system is Acinetobacter baumannii ATCC17961. Description: Antimicrobial susceptibility testing: 90% growth inhibitory concentration (IC90) determination in Iso-Sensitest broth, OD600 growth. In kind it is cell-based. The settings on record: Acinetobacter baumannii, ATCC17961, 16 h, read-out: A. baumannii ATCC 17961 IC90 (uM), strain ATCC 17961, OD600 growth over 16 h. The procedure, abridged:
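Serial twofold dilution, 10 points, e.g. 50–0.097 μM final; ~5×10^(5) CFU/ml; 35±2° C, 16 h; kinetic OD600 every 20 min; IC90 from log-phase inhibition.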
On to `CCc1cc(Nc2nccn3c(-c4cn(CC(F)F)nc4C(F)(F)F)cnc23)ccc1C(=O)NCCNC(=O)C1CCNCC1` [Example 554, N-(2-(4-((3-(1-(2,2-difluoroethyl)-3-(trifluoromethyl)-1H-pyrazol-4-yl)imidazo[1,2-a]pyrazin-8-yl)amino)-2-ethylbenzamido)ethyl) piperidine-4-carboxamide formate], for which the IC90 – broadly, the concentration at which the effect reaches the 90% level – is 0.198 µM.
The same measure, in the same setting: with `N[C@@H]1CC[C@H](C(=O)N2CCN(C(=O)c3ccc(Nc4nccn5c(-c6c[nH]nc6C(F)(F)F)cnc45)cc3Cl)CC2)C1` [Example 342, [4-[(1S,3R)-3-aminocyclopentanecarbonyl]piperazin-1-yl]-[2-chloro-4-[[3-[3-(trifluoromethyl)-1H-pyrazol-4-yl]imidazo[1,2-a]pyrazin-8-yl]amino]phenyl]methanone formate] the figure was 0.228 µM; with `Cc1cc(Nc2nccn3c(-c4cn(C)nc4C(F)(F)F)cnc23)ccc1C(=O)N1CCN(C(=O)[C@@H]2CCNC[C@H]2O)CC1` [Example 477, formic acid; [4-[(3S,4R)-3-hydroxypiperidine-4-carbonyl]piperazin-1-yl]-[2-methyl-4-[[3-[1-methyl-3-(trifluoromethyl)pyrazol-4-yl]imidazo[1,2-a]pyrazin-8-yl]amino]phenyl]methanone], 3.24 µM.
The same measure, in the same setting: the same measure for `O=C(CN1CCN(C(=O)c2ccc(Nc3nccn4c(-c5cn(CC(F)F)nc5C(F)(F)F)cnc34)cc2Cl)CC1)NC1CNC1` [Example 599, N-(azetidin-3-yl)-2-(4-(2-chloro-4-((3-(1-(2,2-difluoroethyl)-3-(trifluoromethyl)-1H-pyrazol-4-yl)imidazo[1,2-a]pyrazin-8-yl)amino)benzoyl)piperazin-1-yl)acetamide formate]: 0.522 µM; for `CCc1cc(Nc2nccn3c(-c4c[nH]nc4C(F)(F)F)cnc23)ccc1C(=O)NCCOCCCN` [Example 613, N-(2-(3-aminopropoxy)ethyl)-2-ethyl-4-((3-(3-(trifluoromethyl)-1H-pyrazol-4-yl)imidazo [1,2-a]pyrazin-8-yl)amino)benzamide formate]: 0.105 µM.
Consider `CCc1cc(Nc2nccn3c(-c4c[nH]nc4C(F)(F)F)cnc23)ccc1C(=O)NCCNC(=O)C1CCNCC1` [Example 553, N-(2-(2-ethyl-4-((3-(3-(trifluoromethyl)-1H-pyrazol-4-yl)imidazo[1,2-a]pyrazin-8-yl)amino)benzamido)ethyl) piperidine-4-carboxamide formate], for which the IC90 was 0.682 µM.
On the same count and under the same terms, the same measure for `CCc1cc(Nc2nccn3c(-c4cn(CCN(C)C)nc4C(F)(F)F)cnc23)ccc1C(=O)NCCOCCN` [Example 309, N-[2-(2-aminoethoxy)ethyl]-4-[[3-[1-[2-(dimethylamino)ethyl]-3-(trifluoromethyl)pyrazol-4-yl]imidazo[1,2-a]pyrazin-8-yl]amino]-2-ethylbenzamide formate]: 0.618 µM; for `O=C(c1ccc(Nc2nccn3c(-c4c[nH]nc4C(F)(F)F)cnc23)cc1Cl)N1CCN(C(=O)[C@@H]2CCNC[C@H]2O)CC1` [Example 454, [2-chloro-4-[[3-[3-(trifluoromethyl)-1H-pyrazol-4-yl]imidazo[1,2-a]pyrazin-8-yl]amino]phenyl]-[4-[(3S,4R)-3-hydroxypiperidine-4-carbonyl]piperazin-1-yl]methanone formate]: 0.778 µM.

The same assay, now with this note: Acinetobacter baumannii, ATCC17961, 16 h, strain ATCC 17961, OD600 growth over 16 h, read-out: A. baumannii ATCC 17961 IC90.
On to `CCc1cc(Nc2nccn3c(-c4cn(CC(F)F)nc4C(F)(F)F)cnc23)ccc1C(=O)N1CCC1(CN)CCl` (stereo not shown) [Example 560, (2-(aminomethyl)-2-(chloromethyl)azetidin-1-yl)(4-((3-(1-(2,2-difluoroethyl)-3-(trifluoromethyl)-1H-pyrazol-4-yl)imidazo[1,2-a]pyrazin-8-yl)amino)-2-ethylphenyl) methanone formate], for which the IC90 came out at 0.836 µM.
For `N#CCn1cc(-c2cnc3c(Nc4ccc(C(=O)NCC(=O)NC5CC(N)C5)c(Cl)c4)nccn23)c(C(F)(F)F)n1` (stereo not shown) [Example 660, N-[2-[(3-aminocyclobutyl)amino]-2-oxo-ethyl]-2-chloro-4-[[3-[1-(cyanomethyl)-3-(trifluoromethyl)pyrazol-4-yl]imidazo[1,2-a]pyrazin-8-yl]amino] benzamide formate], the IC90 was 0.277 µM.
As to `C#CCNCCCNC(=O)c1c(C)cc(Nc2nccn3c(-c4c[nH]nc4C(F)(F)F)cnc23)cc1F` [Example 85, 2-fluoro-6-methyl-N-[3-(prop-2-ynylamino)propyl]-4-[[3-[3-(trifluoromethyl)-1H-pyrazol-4-yl]imidazo[1,2-a]pyrazin-8-yl]amino]benzamide], the IC90 is 3.26 µM.
Turning to `N#CCn1cc(-c2cnc3c(Nc4ccc(C(=O)N5CC(N)C5)c(Cl)c4)nccn23)c(C(F)(F)F)n1` [Example 100, 2-[4-[8-[4-(3-aminoazetidine-1-carbonyl)-3-chloroanilino]imidazo[1,2-a]pyrazin-3-yl]-3-(trifluoromethyl)pyrazol-1-yl]acetonitrile], the concentration for an effect of 90% (IC90) was 0.1 µM.
On to `O=C(c1ccc(Nc2nccn3c(-c4cn(Cc5cc[nH]n5)nc4C(F)(F)F)cnc23)cc1Cl)N1CCNCC1` [Example 177, [2-chloro-4-[[3-[1-(1H-pyrazol-3-ylmethyl)-3-(trifluoromethyl)pyrazol-4-yl]imidazo[1,2-a]pyrazin-8-yl]amino]phenyl]-piperazin-1-ylmethanone], for which the IC90 was determined as 0.11 µM.
Same read-out and setting: with `CCc1cc(Nc2nccn3c(-c4cn(Cc5cc[nH]n5)nc4C(F)(F)F)cnc23)ccc1C(=O)NC` [Example 15, 2-ethyl-N-methyl-4-[[3-[1-(1H-pyrazol-3-ylmethyl)-3-(trifluoromethyl)pyrazol-4-yl]imidazo[1,2-a]pyrazin-8-yl]amino]benzamide] the figure was 0.251 µM; with `CCc1cc(Nc2nccn3c(-c4cn(CCF)nc4C(F)(F)F)cnc23)ccc1C(=O)NCCOC[C@@H](C)N` [Example 150, N-[2-[(2R)-2-aminopropoxy]ethyl]-2-ethyl-4-[[3-[1-(2-fluoroethyl)-3-(trifluoromethyl)pyrazol-4-yl]imidazo[1,2-a]pyrazin-8-yl]amino]benzamide], 0.173 µM.
Still for that read-out and setting: the same measure for `CCc1cc(Nc2nccn3c(-c4cn(CC#N)nc4C(F)(F)F)cnc23)ccc1C(=O)NCCOC[C@@H](C)N` [Example 156, N-[2-[(2R)-2-aminopropoxy]ethyl]-4-[[3-[1-(cyanomethyl)-3-(trifluoromethyl)pyrazol-4-yl]imidazo[1,2-a]pyrazin-8-yl]amino]-2-ethylbenzamide]: 0.627 µM.
Turning to `CCc1cc(Nc2nccn3c(-c4cn(COC)nc4C(F)F)cnc23)ccc1C(=O)N1CCN(C(=O)C2CC(O)CN2)CC1` (stereo not shown) [Example 798, (4-(4-((3-(3-(difluoromethyl)-1-(methoxymethyl)-1H-pyrazol-4-yl)imidazo[1,2-a]pyrazin-8-yl)amino)-2-ethylbenzoyl)piperazin-1-yl)(4-hydroxypyrrolidin-2-yl)methanone], the IC90 stood at 2.36 µM.
Same read-out and setting: with `CN(CCN)C(=O)c1ccc(Nc2nccn3c(-c4c[nH]nc4C(F)(F)F)cnc23)cc1Cl` [Example 322, N-(2-aminoethyl)-2-chloro-N-methyl-4-[[3-[3-(trifluoromethyl)-1H-pyrazol-4-yl]imidazo[1,2-a]pyrazin-8-yl]amino]benzamide] the figure was 0.97 µM; with `Cc1cc(Nc2nccn3c(-c4c[nH]nc4C(F)(F)F)cnc23)ccc1C(=O)N1CCN(C(=O)CCCN)CC1` [Example 420, 4-amino-1-[4-[2-methyl-4-[[3-[3-(trifluoromethyl)-1H-pyrazol-4-yl]imidazo[1,2-a]pyrazin-8-yl]amino]benzoyl]piperazin-1-yl]butan-1-one], 0.746 µM.
Still for that read-out and setting: with `C#CCn1cc(-c2cnc3c(Nc4ccc(C(=O)N5CCN(C(=O)[C@H]6C[C@H](N)C6)CC5)c(CC)c4)nccn23)c(C(F)F)n1` [Example 734, (4-((1r,3r)-3-aminocyclobutane-1-earbonyl)piperazin-1-yl)(4-((3-(3-(difluoromethyl)-1-(prop-2-yn-1-yl)-1H-pyrazol-4-yl)imidazo[1,2-a]pyrazin-8-yl)amino)-2-ethylphenyl)methanone] the figure was 0.489 µM; with `N#CCn1cc(-c2cnc3c(Nc4ccc(C(=O)N5CC[C@H](O)C5)c(Cl)c4)nccn23)c(C(F)(F)F)n1` [Example 243, 2-[4-[8-[3-chloro-4-[(3S)-3-hydroxypyrrolidine-1-carbonyl]anilino]imidazo[1,2-a]pyrazin-3-yl]-3-(trifluoromethyl)pyrazol-1-yl]acetonitrile], 0.384 µM; with `CCc1cc(Nc2nccn3c(-c4cn(CC(F)F)nc4C(F)(F)F)cnc23)ccc1C(=O)NCCNC(=O)[C@@H]1CCCN1` [Example 35, (2S)-N-[2-[[4-[[3-[1-(2,2-difluoroethyl)-3-(trifluoromethyl)pyrazol-4-yl]imidazo[1,2-a]pyrazin-8-yl]amino]-2-ethylbenzoyl)amino]ethyl]pyrrolidine-2-carboxamide], 0.185 µM.
Turning to `NCCCNC(=O)c1ccc(Nc2nccn3c(-c4c[nH]nc4C(F)(F)F)cnc23)cc1Cl` [Example 364, N-(3-aminopropyl)-2-chloro-4-[[3-[3-(trifluoromethyl)-1H-pyrazol-4-yl]imidazo[1,2-a]pyrazin-8-yl]amino]benzamide], the concentration for an effect of 90% (IC90) came to 1.13 µM.
As for `NCC(=O)N1CCN(C(=O)c2ccc(Nc3nccn4c(-c5cn(C(F)F)nc5C(F)(F)F)cnc34)cc2Cl)CC1` [Example 78, 2-amino-1-[4-[2-chloro-4-[[3-[1-(difluoromethyl)-3-(trifluoromethyl)pyrazol-4-yl]imidazo[1,2-a]pyrazin-8-yl]amino]benzoyl]piperazin-1-yl]ethanone], the IC90 amounted to 0.161 µM.

The assay is the same for the next values; noted with them: strain ATCC 17961, OD600 growth over 16 h, read-out: A. baumannii ATCC 17961 IC90.
Take `N#CCn1cc(-c2cnc3c(Nc4ccc(C(=O)NCCO)c(Cl)c4)nccn23)c(C(F)(F)F)n1` [Example 234, 2-chloro-4-[[3-[1-(cyanomethyl)-3-(trifluoromethyl)pyrazol-4-yl]imidazo[1,2-a]pyrazin-8-yl]amino]-N-(2-hydroxyethyl) benzamide]: the IC90 is 0.189 µM.
